We go through 5 compounds from US5141627A, “Chelators whose affinity for calcium ion is increased by illumination” (The Regents of the University of California, priority 1989, dated 1992).

Several values for one entry are separate records, joined by “and”; a condition that tells them apart may be missing. Equal entries are not always repeated. Where two headings read alike, the source gives them in different places.

Data set [1] is described as follows: Ca2+ affinity by UV spectra during titration of EGTA or HEEDTA buffers. It counts as binding. The following applies: after photolysis; Hill plot / equilibrium measurements; read-out: Kd (Ca2+) / affinity after photolysis. The protocol:
The titration was done at 22° C. with 10 mL of 100 mM KCl, 10 mM K-MOPS, 10 mM K2 H.HEEDTA, and 14 […] diazo-2 as starting materials, adjusting the pH to 7.24, recording the spectrum, and then discarding 1.0 mL of this solution and replacing with 1.0 mL of 100 mM KCl, 10 mM K.MOPS, 10 mM KCa.HEEDTA, 14 μM diazo-2, readjusting the pH to 7.24, and recording the spectra, which was then in 9 mM K2H.HEEDTA. Subsequent iterations to reach n mM KCa.HEEDTA, (10-n) mM HEEDTA, n=2-10, were done by discarding 10.0/(11-n) mL and replacing with equal volumes of the 10mM KCa.HEEDTA, 14 μM diazo-2 stock. After n=10 had been reached to give free Ca^2+ between 10^-5 and 10^-4 M, addition of 1 mM CaCl2 had no further effect on the spectrum. For clarity only six spectra are including in the figure, n=0, 2, 4, 6, 8, and 10. Each spectrum is labeled with the calculated free [Ca^2+ ] imposed by the HEEDTA buffer, assuming a log effective stability constant of 5.55 at pH 7.24.
The phenylacetate was produced by irradiating a 30 μM solution of diazo-2 in 100 mM KCl, 10 mM Tris.HCl, 10 mM K2 H.HEEDTA, pH 8.40, with Spectroline lamp at 365 nm to completion. The titration was then performed as in A but the pH was maintained at 8.40, at which the calculated log effective stability is constant for HEEDTA was 6.60.
Ca^2+ -binding constants for chelators before and after photolysis were determined by monitoring UV spectra during titration of EGTA or HEEDTA buffers to varying free Ca^2+ levels.
Either the ratio of, for example, [Ca.EGTA] to free [EGTA] was adjusted at a constant pH, or the pH was varied while [Ca.EGTA]=[EGTA]. These two approaches gave equivalent answers for pH>7 whenever directly tested, because of the pH insensitivity of BAPTA-like ligands (see FIG. 1 legend for more details). The apparent dissociation constants of Ca.EGTA and Ca.HEEDTA were calculated as described by R. Y. Tsien (1980); see also R. Y. Tsien, et al. (1986), S. R. Adams, et al. (1980), Grynkiewicz, et al., (1985), and Jackson, et al. (1987).

Data set [2] can be described thus: Ca2+ binding kinetics of photolyzed diazo-2 by competition with HEEDTA after flash photolysis. The source says:
Having determined the rate at which the high-affinity chelator was photochemically generated from diazo-2, the kinetics of Ca^2+ binding by the photolysis of diazo-2 was examined relying on the 1:1 competition between protons and Ca^2+ for the chelator HEEDTA, i.e.:
If diazo-2 is photolyzed in the presence of HEEDTA partially saturated with Ca^2+, the photo-generated Compound 3c would take some Ca^2+ away from HEEDTA. The newly freed HEEDTA would then take up some protons and lead to an alkalinization of the sample. The shift in Ca^2+ -binding equilibrium is thus visualized with an indicator like cresol red. Control experiments indicate that at HEEDTA buffer concentrations ≥2 mM, the intrinsic kinetics of the Ca^2+ -HEEDTA equilibrium was no longer limiting the speed of the final alkalinization.
It is noted that the solution first acidified owing to the formation and dissociation of the product carboxylic acid, but subsequently began realkalinizing as the newly formed product chelator competed with HEEDTA for Ca^2+. The time constant of the realkalinization was 2.8 ms (Table I). […]
FIG. 2B is a flash photolysis record of the kinetics of Ca^2+ uptake by photolyzed diazo-2. […] Monitoring the light transmission at 572 nm was performed as for A. Each small division of the ordinate corresponds to 3.4×10^-4 absorbance unit. […] As the photolyzed diazo-20 took Ca^2+ away from HEEDTA, the freed HEEDTA bound protons and thus alkalinized the solution, a process reflected by the increase in cresol red absorbance (i.e., decline in light transmission at 572 nm).
Kinetics of the conversion of diazo-2 and diazo-3 to the carboxylic acid products and the kinetics of Ca^2+ binding by photolyzed diazo-2 were measured by flash photolysis and pH monitoring. […]

For data set [3] the following is noted: acid-base indicator; cited from earlier work.
For data set [4] the following is noted: Mg.EGTA incl. monoprotonated form, pH 7.60, 0.1M ionic strength; assumed; read-out: apparent dissociation constant for Mg complex; cited from earlier work.
For data set [5] the following is noted: cited from earlier work.
Data set [6] concerns cells. The following applies: photolyzed in cells; cited from earlier work.

With `Cc1ccc(N(CC(=O)O)CC(=O)O)c(OCCOc2cc(CC(=O)O)ccc2N(CC(=O)O)CC(=O)O)c1` [Compound 3c], the Kd in data set [1] was ~0.073 µM and 0.073 µM. In data set [2] (70 μM diazo-2, 2 mM HEEDTA half-saturated with Ca2+, free [Ca2+] 377 nM), the “time constant of realkalinization” value is 2.8 ms. Further, in data set [2] (photolyzed diazo-2), the “koff, unimolecular rate constant for dissociation of Ca2+ complex” value was 58 s⁻¹ and the “kon, bimolecular rate constant for binding of Ca2+” value worked out at 8e+08 M⁻¹ s⁻¹.
Turning to `Cc1cc(C2(c3ccc(O)c(C)c3)OS(=O)(=O)c3ccccc32)ccc1O` [Cresol red], in data set [3], the pKa is recorded as 8.2.
Turning to `O=C(O)CN(CCOCCOCCN(CC(=O)O)CC(=O)O)CC(=O)O` [EGTA, ethylenebis(oxyethylenenitrilo)tetraacetic acid], the Kd in data set [4] is 6000 µM.
Take `Cc1ccc(N(CC(=O)O)CC(=O)O)c(OCCOc2cc(-c3c4cc(Cl)c(=O)cc-4oc4cc(O)c(Cl)cc34)ccc2N(CC(=O)O)CC(=O)O)c1` [Fluo-3]: the “enhancement of fluorescence quantum yield by Ca2+ binding” value in data set [5] (Ca2+ binding) is listed as “about 40 fold”. Besides, in data set [5] (read-out: Kd (Ca2+) of fluorescent indicator), the Kd is 0.4 µM.
For the compound `Cc1ccc(N(CC(=O)O)CC(=O)O)c(OCCOc2cc(C(O)c3cc4c(cc3[N+](=O)[O-])OCO4)ccc2N(CC(=O)O)CC(=O)O)c1` (stereo not drawn) [nitr-5], the “irradiation damage on photolysis in cells (in words)” value in data set [6] is “without noticeable irradiation damage”.
